Data set [1] in a line: Water dispersity of triamterene-Gelucire 44/14 melts. The data set is classed as physicochemical. The settings on record: 30 mg triamterene in melted Gelucire, drug-lipid melt in 900 ml water. The method, then: To examine the compositions described above, triamterene was used as a model drug. […] In experiment, 30 mg triamterene was dissolved in various amounts of melted Gelucire to make the drug concentration to be 5%, 7.5%, 10% 12.5% 15% and 20%, respectively. Then the drug-lipid melts were dissolved in 900 ml of water. Up to 10% of triamterene in Gelucire, the drug was dispersed in water without precipitates. At higher drug contents (i.e. less lipids), precipitates were observed under a microscope. Drug concentration (in Gelucire) of 10% was selected-for later experiments.

The nature of data set [2]: Size distribution of drug-lipid droplets after dissolution (sub-micron particle sizer). The settings on record: triamterene from active-release tablets. The data set is classed as physicochemical. The procedure: The morphologies of triamterene after dissolution in 0.1 M HCl and in water were characterized using a sub-micron particle sizer. The aliquots collected at the end of dissolution were centrifuged under the same conditions as in Example 4 prior to measurement. […] The impregnated powder was suspended in 900 ml PBS buffer at 37° C. with stirring at 100 rpm. […] The aliquots were collected at programmed time intervals, followed by centrifugation at 1000 rpm in an Eppendorf tube for 1 min.

The conditions of data set [3]: cited from earlier work.

Each structure is given as a SMILES string. Converted amounts (≈) assume the structure as drawn. Like-named read-outs stand apart in the source and are kept apart here.

This is an account of results in patent US20040001888A1, “Solid dosage forms for rapid dissolution of poorly soluble drugs” (BioPharm Solutions Inc., priority 2002, published 2004).

What is called solubility is the dissolved amount per volume that the medium holds. Consider `Nc1nc(N)c2nc(-c3ccccc3)c(N)nc2n1` [triamterene], for which the “drug concentration in Gelucire dispersed in water without precipitates” value in data set [1] is listed as “Up to 10%”. Further, in data set [2] (dissolution in water), the “mean diameter of droplets” value stood at 277 nm. Further, the particles after dissolution result in data set [2] (dissolution medium 0.1 M HCl) was “no particles were detected”. Besides, the values for the solubility in data set [3] (pH 1 buffer) and in data set [3] (pH 7) were 321 µg/mL (≈ 1270 µM) and 45 µg/mL (≈ 178 µM), respectively.
